Test results published in patent JP2008179567A, “ピラジン誘導体を有効成分とする抗がん剤” (Toray Industries Inc, priority 2007, dated 2008).

Tests used:
[1] = Body weight and organ damage in mouse colon cancer model; assay type: in vivo; conditions: end of test, 50 mg/kg i.v.; sodium salt
[2] = test system: tumor derived from Colon26 cells, mouse colon cancer model [Colon26細胞由来の腫瘍, マウス結腸癌モデル]; assay: Tumor growth inhibition in mouse colon cancer model (Colon26, BALB/c); assay type: in vivo; conditions: 50 mg/kg i.v., sodium salt

Nc1nn(-c2cncc(-n3ccc(CC(=O)O)c3)n2)c2cc(Cl)ccc12 [参考例6, 2-{1-[6-(3-アミノ-6-クロロ-1H-インダゾリル)ピラジン-2-イル]ピロール-3-イル}酢酸]
body weight difference from control group [1]: 体重の差はなく | organ damage [1]: 各臓器の障害は何ら認められなかった | estimated tumor volume ([2]; from day 5 after start of dosing, compared with control group (Fig. 1)): 対照群に比較して小さくなった | tumor growth rate ([2]; day 7 after start of dosing, n=10, relative to estimated tumor volume on day 1, control 1068±197%, P=0.02 (Fig. 2)): 493±81% | tumor weight ([2]; day 15 after start of dosing, n=10, control 2.11±0.25 g, P=0.20): 1.57 ± 0.31 g | reduction of tumor weight ([2]; day 15 after start of dosing, vs control group, P=0.20): 25%
